Results taken from patent US20080118980A1, “Estrogen Enhancing Differentiation of Human Mesenchymal Stromal Cells and Adipose-derived Stromal Cells” (The Board of Trustees of the University of Illinois,, priority 2006, published 2008).

How the values were obtained:
Assay type in all cases: cell-based
human ASCs = test: Osteogenic differentiation of ASCs modulated by E2 (Example 2)
Experimental: Because estrogen receptors (ERs) exist in adipose tissues (Dieudonne et al. (2004) Am J Physiol Cell Physiol. 286:C655-661), it is hypothesized that estrogen can also modulate the differentiation potentials of ASCs. All the experiments using human ASCs were performed under an approved IRB protocol of the University of Illinois at Chicago. Human abdomen subcutaneous adipose tissue was obtained from a healthy person with lipo-aspirated surgery. ASCs were isolated from adipose tissue according to previous studies (Hong et al. (2006) Cells Tissues Organs. 183 (3):133-40). Briefly, adipose tissue was finely minced and then digested with 0.075 wt % collagenase type I (Sigma, St Louis, Mo.) at 37° C. for 45 min with intermittent shaking. The cells were collected by filtration with a cell strainer with pore size of 100 μm diameter (Fisher Scientific, Barrington, Ill.). The harvested cells were cultured in a Dulbecco's Modified Eagle's Medium (DMEM), 15% fetal bovine serum (FBS) and 1% antibiotic-antimycotic at 10^6 cells/100 mm dish. Upon reaching 80-90% confluence, the isolated cells were trypsinized, counted, and subcultured at a density of 10^5 cells/100 mm dish as passage-1. The cells used for study are passage-3.
The basic medium supplemented with 100 nM dexamethasone, 10 mM β-glycerophosphate, and 0.05 mM ascorbic acid-2-phosphate was used to differentiate ASCs into an osteogenic cell lineage. Human ASCs were seeded at a cell density of 10^4 cells/cm^2 on 12-well plates and 100 mm petri dishes. Upon reaching 70% confluence, counting as day-0, the cells were exposed to osteogenic differentiation medium supplemented with different concentrations of E2 (from 10^−8 to 10^−11 M). On day 7, the cells cultured on petri dishes were collected for assessment of gene expressions of osteogenic specific markers and estrogen receptors (ERs) by reverse transcriptase polymerase chain reaction (RT-PCR) analysis. On day 14, the cells cultured in 12-well plates were analyzed for DNA, extracellular matrix, alkaline phosphatase (ALP) activity and calcium content.
On the defined day, cells cultured in 12-well plates were washed twice with phosphate buffered solution (PBS), suspended and lysed in 1% Triton-X100 solution (Sigma, St. Louis, Mo.). The collected cells were subsequently homogenized using sonication (Dismembrator Model 100, Fisher Scientific, Barrington, Ill.). The DNA content in the cells was determined by a fluorometric assay using a spectrofluorometer and DNA quantification kit (Hoechst 33258, Bio-Rad, Hercules, Calif.). The total protein concentrations of lysates were measured by a simple colorimetric assay based on the Bradford dye-binding procedure (Bio-Rad, Hercules, Calif.). The amount of protein was normalized by the unit of DNA.
ALP activity was assessed qualitatively by ALP staining. The cultured cells were fixed in 10% paraformaldehyde and incubated with 120 mM Tris buffer, pH 8.4, containing 0.9 mM Naphtol AS-MX Phosphate (Sigma, St. Louis, Mo.) and 1.8 mM Fast Red TR. After 45 min at room temperature, the cultures were washed with deionized water. Mineral deposition in the extracellular matrix was presented by von Kossa staining. The fixed cells were incubated in 2.5% (w/v) silver nitrate (Sigma, St. Louis, Mo.) solution for 30 min in sunlight. In order to quantify ALP activity and calcium content, cultured cells were washed twice with PBS, suspended and lysed in 0.5 ml of 1% Triton-X100 solution. ALP and calcium content were measured by spectrophotometry with a colorimetric kit according to the manufacturer's instructions (Raichem, San Diego, Calif.).
Total RNA was extracted from the various differentiated cells using TRizol reagent (Invitrogen, Carlsbad, Calif.). Approximately 5 μg of total RNA was converted to single stranded cDNA using a commercial cDNA synthesis kit (Invitrogen, Carlsbad, Calif.). […]

[1] = system: human bone marrow mesenchymal stem cells (MSCs); test: Proliferation of human bone marrow MSCs in basic medium with E2 or E3 (MTS, Example 3)
Experimental: This study investigates the mitogenic effects of estrogen receptor ligands on human bone marrow MSCs that is not contacted with osteogenic or adipogenic medium. Purified human bone marrow mesenchymal stem cells (MSCs) were purchased commercially. MSCs were respectively exposed to basic medium (DMEM+10% FBS+1% antibiotics), and basic medium supplement with 10^−6 and 10^−9 M 17-β estradiol (E2) and estriol (E3) for approximately one week. Then, various cells were plated into 96-well plates in 500 cells/well and continued to be exposed to the media. After 4 days, cell densities were measured by MTS methods and compared to initial densities. FIG. 8 illustrates the increase of the number of MSCs after being treated with basic medium and basic medium supplemented with E2 or E3.

[2] = system: rat bone MSC-based TE constructs; test: Osteogenic differentiation of rat bone MSC-based TE constructs with E2 (Example 4); details: 14 days; for calcium deposition: FIG. 9C
Experimental: TE constructs were created by seeding passage-1 MSCs on gelatin sponges (Gelfoam@, Pharmacia & Upjohn, Kalamazoo, Mich.). The sponge were trimmed into 4×4×4 mm^3 and pre-wet with DMEM medium for 1 hr. The sponges were transferred to MSC suspension with a cell density of 2×10^6 cells/ml under a slight vacuum created by 20 ml syringe, followed by incubation in 5% CO2 at 37° C. for two hours. Beginning the next day as day-0, TE constructs were respectively exposed to the osteogenic differentiation medium supplemented with different concentrations of E2 (10^−6M to 10^−12M). The osteogenic differentiation medium consists of basic medium supplemented with 100 nM dexamethasone, 10 mM β-glycerophosphate, and 0.05 mM ascorbic acid-2-phosphate. After two weeks of differentiation, constructs of each experimental group were collected and quantitatively measured for osteogenic differentiation.
TE constructs were immersed in 0.2 ml of 1% Triton-X100 and homogenized with sonication. The DNA concentration of cell lysate was measured fluorometrically using Hoechst dye 33258 (Bio-Rad, Hercules, Calif.). The fluorescent optical density of each sample was measured using a fluorometer having an excitation wavelength of 360 nm and an emission wavelength of 460 nm. The amount of DNA in each sample was determined by using a prepared standard curve. ALP and calcium content were measured by spectrophotometry with a calorimetric kit according to the manufacturers' instructions (Sigma, St. Louis, Mo.).

## C[C@]12CC[C@@H]3c4ccc(O)cc4CC[C@H]3[C@@H]1CC[C@@H]2O [E2, 17-β estradiol]
Human ASCs; 7 days, estrogen supplement 10^−8 M
  OCN expression (RT-PCR): only expressed
Human ASCs; 7 days, estrogen supplement 10^−11 M
  ERβ expression (RT-PCR): light bands
Human ASCs; 7 days, vs cells grown in the absence of estrogen, FIG. 4
  ALP and cbfa-1 expression (RT-PCR bands): intense bands
Human ASCs; ASCs, osteogenic medium supplemented with E2
  staining for ALP and von Kossa: Intense staining
Human ASCs; E2 10^−9 and 10^−8 M, after 14 days, FIG. 5B
  ALP activities: significantly improved
Human ASCs; day 14, FIG. 5A
  proliferation during osteogenesis (DNA content): does not increase proliferation
Human ASCs; day 14, most notably at 10^−8 M, FIG. 5D
  calcium content (mineralization of the extracellular matrix): significantly increased
Human ASCs; day 14, normalized by DNA, FIG. 5C
  protein content (extracellular matrix synthesis): increased
[1]; 10^−6 and 10^−9 M, about one week then 4 days in 96-well plates, FIG. 8
  cell proliferation (MTS assay and cell counting): greatly increased
[1]; vs controls
  differentiation capabilities (adipogenic and osteogenic) of modulated MSCs: maintain their differentiation capabilities
[2]; both male and female MSCs
  peak concentration of E2 to increase ALP activity: 10^−10 M
[2]; female MSC-derived constructs
  calcium deposition: does not appear to have similar effects
[2]; male MSC-derived constructs
  calcium deposition: may also improve
[2]; male and female constructs, dose-dependent, FIG. 9B
  ALP activities of constructs: increased
